From ChEMBL document CHEMBL5344429, “1,3-Substituted β-Carboline Derivatives as Potent Chemotherapy for the Treatment of Cystic Echinococcosis” (J Med Chem, 2023)
Active and inactive are the calls of the source. No cut-off for these calls is given here.

What was measured:
Echinococcus granulosus [1] = test: Parasiticidal activity against Echinococcus granulosus protoscolices […] by eosin exclusion test; format: functional; settings: 1152 h, time 48 day
Echinococcus granulosus [2] = test: Parasiticidal activity against Echinococcus granulosus protoscolices assessed as death rate at 5 uM incubated for 4 days by eosin exclusion test; format: functional; settings: time 4 day
Echinococcus granulosus [3] = test: Parasiticidal activity against Echinococcus granulosus protoscolices assessed as lethal effect incubated for 4 days by eosin exclusion test; format: functional, organism-based; settings: dose 0.5-5 µM, time 4.0 day
Echinococcus granulosus [4] = test: Parasiticidal activity against Echinococcus granulosus protoscolices assessed as death rate at 0.5 uM incubated for 4 days by eosin exclusion test; format: functional; settings: time 4 day
Echinococcus granulosus [5] = test: Parasiticidal activity against Echinococcus granulosus protoscolices assessed as increase in death rate at 5 uM incubated for 4 days by darker staining-based light microscopy; format: functional, organism-based; settings: time 4.0 day
Echinococcus granulosus [6] = test: Parasiticidal activity against Echinococcus granulosus protoscolices assessed as appearance of body shrank at 5 uM incubated for 4 days by scanning electron microscopy analysis; format: functional, organism-based; settings: time 4.0 day
Echinococcus granulosus [7] = test: Parasiticidal activity against Echinococcus granulosus protoscolices assessed as appearance of rostellum hooks fall off at 5 uM incubated for 4 days by scanning electron microscopy analysis; format: functional, organism-based; settings: time 4.0 day
Echinococcus granulosus [8] = test: Parasiticidal activity against Echinococcus granulosus protoscolices assessed as appearance of blurred marginal structure at 5 uM incubated for 4 days by scanning electron microscopy analysis; format: functional, organism-based; settings: time 4.0 day
Echinococcus granulosus [9] = test: Parasiticidal activity against Echinococcus granulosus protoscolices assessed as partial vacuolar change at 5 uM incubated for 4 days by scanning electron microscopy analysis; format: functional, organism-based; settings: time 4.0 day
Echinococcus granulosus [10] = test: Parasiticidal activity against Echinococcus granulosus protoscolices assessed as degeneration of outer skin at 5 uM incubated for 4 days by scanning electron microscopy; format: functional, organism-based; settings: time 4.0 day
Echinococcus granulosus [11] = test: Parasiticidal activity against Echinococcus granulosus protoscolices assessed as loss of hooks at 5 uM incubated for 4 days by scanning electron microscopy; format: functional, organism-based; settings: time 4.0 day
Echinococcus granulosus [12] = test: Parasiticidal activity against Echinococcus granulosus protoscolices assessed as loss of suckers at 5 uM incubated for 4 days by scanning electron microscopy; format: functional; settings: time 4 day
Echinococcus granulosus [13] = test: Parasiticidal activity against Echinococcus granulosus assessed as collapse of germinal layers at 100 uM incubated for 4 days by scanning electron microscopy; format: functional, organism-based; settings: time 4.0 day
Echinococcus granulosus [14] = test: Parasiticidal activity against Echinococcus granulosus cyst assessed as seperation from cuticle at 100 uM incubated for 4 days by scanning electron microscopy; format: functional, organism-based; settings: time 4.0 day
Echinococcus granulosus [15] = test: Parasiticidal activity against Echinococcus granulosus cyst assessed as formation of dense aggregates at 100 uM incubated for 4 days by scanning electron microscopy; format: functional, organism-based; settings: time 4.0 day
[16] = Cmax in Wistar rat at 5 mg/kg, iv by HPLC analysis; format: ADME, organism-based; design: dose 5 mg/kg, route iv; settings: in vivo
[17] = AUC (0 to infinity) in Wistar rat at 5 mg/kg, iv by HPLC analysis; format: ADME, organism-based; design: dose 5 mg/kg, route iv; settings: in vivo
[18] = Oral bioavailability in Wistar rat at 50 mg/kg, […] by HPLC analysis; format: ADME, organism-based; settings: in vivo
Echinococcus granulosus [19] = test: Parasiticidal activity against Echinococcus granulosus protoscolices assessed as lethal effect at 0.5 to 5 uM by eosin exclusion test; format: functional, organism-based; settings: dose 0.5-5 µM, TDE = time-dependent effect
Echinococcus granulosus [20] = test: Potency index, ratio of Harmine LC50 to test compound LC50 for Parasiticidal activity against Echinococcus granulosus protoscolices; format: functional
Echinococcus granulosus [21] = test: Parasiticidal activity against Echinococcus granulosus protoscolices assessed as change in ultrastructure at 5 uM incubated for 4 days by scanning electron microscopy; format: functional, organism-based; settings: time 4.0 day
Echinococcus granulosus [22] = test: Parasiticidal activity against Echinococcus granulosus protoscolices assessed as appearance of whole body vacuolation at 5 uM incubated for 4 days by H and E based staining assay; format: functional, organism-based; settings: time 4.0 day
Echinococcus granulosus [23] = test: Parasiticidal activity against Echinococcus granulosus protoscolices assessed as appearance of dissolved and disappeared matrix at 5 uM incubated for 4 days by H and E staining based assay; format: functional, organism-based; settings: time 4.0 day
Echinococcus granulosus [24] = test: Parasiticidal activity against Echinococcus granulosus protoscolices assessed as appearance of disintegrated marginal structure at 5 uM incubated for 4 days by H and E staining based assay; format: functional, organism-based; settings: time 4.0 day
[25] = Half life in Wistar rat at 5 mg/kg, iv by HPLC analysis; format: ADME, organism-based; settings: in vivo
[26] = Half life in Wistar rat at 50 mg/kg, ip by HPLC analysis; format: ADME, organism-based; settings: in vivo
Echinococcus granulosus [27] = test: Parasiticidal activity against Echinococcus granulosus microcyst infected in kunming mouse assessed as mean cyst weight at 50 mg/kg, ip administered for 14 days; format: functional; settings: time 14 day
Echinococcus granulosus [28] = test: Parasiticidal activity against Echinococcus granulosus microcyst infected in kunming mouse assessed as mean cyst weight at 50 mg/kg, ip administered for 28 days; format: functional; settings: time 28 day
Echinococcus granulosus [29] = test: Parasiticidal activity against Echinococcus granulosus microcyst infected in kunming mouse assessed as mean cyst weight at 25 mg/kg, ip administered for 14 days; format: functional; settings: time 14 day
Echinococcus granulosus [30] = test: Parasiticidal activity against Echinococcus granulosus microcyst infected in kunming mouse assessed as mean cyst weight at 25 mg/kg, ip administered for 28 days; format: functional; settings: time 28 day
Echinococcus granulosus [31] = test: Parasiticidal activity against Echinococcus granulosus microcyst infected in kunming mouse assessed as mean cyst weight at 12.5 mg/kg, ip administered for 14 days; format: functional; settings: time 14 day
Echinococcus granulosus [32] = test: Parasiticidal activity against Echinococcus granulosus microcyst infected in kunming mouse assessed as mean cyst weight at 12.5 mg/kg, ip administered for 28 days; format: functional; settings: time 28 day
Echinococcus granulosus [33] = test: Parasiticidal activity against Echinococcus granulosus microcyst infected in kunming mouse assessed as reduction in cyst weight at 50 mg/kg, ip administered for 14 days relative to control; format: functional; design: scale not given: the % may be the effect or the level left; settings: time 14 day
Echinococcus granulosus [34] = test: Parasiticidal activity against Echinococcus granulosus microcyst infected in kunming mouse assessed as reduction in cyst weight at 50 mg/kg, ip administered for 28 days relative to control; format: functional; design: scale not given: the % may be the effect or the level left; settings: time 28 day
Echinococcus granulosus [35] = test: Parasiticidal activity against Echinococcus granulosus microcyst infected in kunming mouse assessed as reduction in cyst weight at 25 mg/kg, ip administered for 14 days relative to control; format: functional; design: scale not given: the % may be the effect or the level left; settings: time 14 day
Echinococcus granulosus [36] = test: Parasiticidal activity against Echinococcus granulosus microcyst infected in kunming mouse assessed as reduction in cyst weight at 25 mg/kg, ip administered for 28 days relative to control; format: functional; design: scale not given: the % may be the effect or the level left; settings: time 28 day
Echinococcus granulosus [37] = test: Parasiticidal activity against Echinococcus granulosus microcyst infected in kunming mouse assessed as reduction in cyst weight at 12.5 mg/kg, ip administered for 14 days relative to control; format: functional; design: scale not given: the % may be the effect or the level left; settings: time 14 day
Echinococcus granulosus [38] = test: Parasiticidal activity against Echinococcus granulosus microcyst infected in kunming mouse assessed as reduction in cyst weight at 12.5 mg/kg, ip administered for 28 days relative to control; format: functional; design: scale not given: the % may be the effect or the level left; settings: time 28 day
Echinococcus granulosus [39] = test: Parasiticidal activity against intraperitoneal cystic Echinococcus granulosus infected in Kunming mouse assessed as appearance of vacuole-like structure at 50 mg/kg, ip administered for 28 days by TEM analysis; format: functional, organism-based; settings: time 28.0 day
Echinococcus granulosus [40] = test: Parasiticidal activity against intraperitoneal cystic Echinococcus granulosus infected in Kunming mouse assessed as cell structure destruction at 50 mg/kg, ip administered for 28 days by TEM analysis; format: functional, organism-based; settings: time 28.0 day
Echinococcus granulosus [41] = test: Parasiticidal activity against intraperitoneal cystic Echinococcus granulosus infected in Kunming mouse assessed as disappearance of nucleolus at 50 mg/kg, ip administered for 28 days by TEM analysis; format: functional, organism-based; settings: time 28.0 day
[42] = Neurotoxicity in Kunming mouse assessed as loosely arranged pyramidal cells in brain at 50 mg/kg, ip administered for 28 days by H and E staining based assay; format: toxicity, organism-based; settings: in vivo, 672 h, time 28 day
[43] = Neurotoxicity in Kunming mouse assessed as swollen pyramidal cells in brain at 50 mg/kg, ip administered for 28 days by H and E staining based assay; format: toxicity, organism-based; settings: in vivo, 672 h, time 28 day
[44] = Neurotoxicity in Kunming mouse assessed as deformed pyramidal cells in brain at 50 mg/kg, ip administered for 28 days by H and E staining based assay; format: toxicity, organism-based; settings: in vivo, 672 h, time 28 day
Echinococcus granulosus [45] = test: Induction of autophagy in Echinococcus granulosus protoscolices assessed as decrease in p62 expression level at 5 uM measured after 4 days by Western blot analysis; format: functional, organism-based; settings: time 4.0 day
Echinococcus granulosus [46] = test: Induction of autophagy in Echinococcus granulosus protoscolices assessed as increase in ATG5 expression level at 5 uM measured after 4 days by Western blot analysis; format: functional, organism-based; settings: time 4.0 day
Echinococcus granulosus [47] = test: Induction of autophagy in Echinococcus granulosus protoscolices assessed as increase in Beclin1 expression level at 5 uM measured after 4 days by Western blot analysis; format: functional, organism-based; settings: time 4.0 day
Echinococcus granulosus [48] = test: Potency index, ratio of Albendazole LC50 to test compound LC50 for Parasiticidal activity against Echinococcus granulosus protoscolices; format: functional
[49] = Neurotoxicity in Kunming mouse assessed as effect on hippocampal structure at 50 mg/kg, ip administered for 28 days by TEM analysis; format: toxicity, organism-based; settings: in vivo, 672 h, time 28 day
[50] = Neurotoxicity in Kunming mouse assessed as effect on hippocampal arrangement at 50 mg/kg, ip administered for 28 days by TEM analysis; format: toxicity, organism-based; settings: in vivo, 672 h, time 28 day
[51] = Neurotoxicity in Kunming mouse assessed as effect on heterochromatin at 50 mg/kg, ip administered for 28 days by TEM analysis; format: toxicity, organism-based; settings: in vivo, 672 h, time 28 day
[52] = Neurotoxicity in Kunming mouse assessed as organelles damage at 50 mg/kg, ip administered for 28 days by TEM analysis; format: toxicity, organism-based; settings: in vivo, 672 h, time 28 day
[53] = Neurotoxicity in Kunming mouse assessed as nuclei damage at 50 mg/kg, ip administered for 28 days by TEM analysis; format: toxicity, organism-based; settings: in vivo, 672 h, time 28 day

Cc1nc(NC(=O)c2ccc(CN3CCC(N4CCCCC4)CC3)cc2)cc2c1[nH]c1ccccc12
LC50 (Echinococcus granulosus [1]): 2.39 µM
Activity (Echinococcus granulosus [2]): >90%
Activity (Echinococcus granulosus [3]): Dose-Dependent Effect
Activity (Echinococcus granulosus [4]): >50%
Activity (Echinococcus granulosus [5]): Active
Activity (Echinococcus granulosus [6]): Active
Activity (Echinococcus granulosus [7]): Active
Activity (Echinococcus granulosus [8]): Active
Activity (Echinococcus granulosus [9]): Active
Activity (Echinococcus granulosus [10]): Active
Activity (Echinococcus granulosus [11]): Active
Activity (Echinococcus granulosus [12]): 59.4%
Activity (Echinococcus granulosus [13]): Active
Activity (Echinococcus granulosus [14]): Active
Activity (Echinococcus granulosus [15]): Active
Cmax [16]: 1120 ng/mL
AUC(0-inf) [17]: 1410 ng·h/mL
bioavailability [18]: 15.5%
Activity (Echinococcus granulosus [19]): Tde
RatioLC50 (Echinococcus granulosus [20]): 84
Activity (Echinococcus granulosus [21]): Active

COc1ccc(-c2nc(NC(=O)c3ccc(CN4CCC(O)CC4)cc3)cc3c2[nH]c2ccccc23)cc1
LC50 (Echinococcus granulosus [1]): 1.61 µM
Activity (Echinococcus granulosus [2]): >90%
Activity (Echinococcus granulosus [3]): Dose-Dependent Effect
Activity (Echinococcus granulosus [4]): >50%
Activity (Echinococcus granulosus [5]): Active
Activity (Echinococcus granulosus [22]): Active
Activity (Echinococcus granulosus [23]): Active
Activity (Echinococcus granulosus [24]): Active
Activity (Echinococcus granulosus [10]): Active
Activity (Echinococcus granulosus [11]): Active
Activity (Echinococcus granulosus [12]): 67.5%
Activity (Echinococcus granulosus [13]): Active
Activity (Echinococcus granulosus [14]): Active
Activity (Echinococcus granulosus [15]): Active
Cmax [16]: 3040 ng/mL
AUC(0-inf) [17]: 3000 ng·h/mL
half-life [25]: 3.11 h
half-life [26]: 9.08 h
bioavailability [18]: 42.4%
Activity (Echinococcus granulosus [27]): 13.7 mg
Activity (Echinococcus granulosus [28]): 12.6 mg
Activity (Echinococcus granulosus [29]): 18.1 mg
Activity (Echinococcus granulosus [30]): 15.2 mg
Activity (Echinococcus granulosus [31]): 20.9 mg
Activity (Echinococcus granulosus [32]): 17.8 mg
Activity (Echinococcus granulosus [33]): 73.35%
Activity (Echinococcus granulosus [34]): 76.87%
Activity (Echinococcus granulosus [35]): 64.79%
Activity (Echinococcus granulosus [36]): 72.05%
Activity (Echinococcus granulosus [37]): 59.41%
Activity (Echinococcus granulosus [38]): 51.12%
Activity (Echinococcus granulosus [39]): Active
Activity (Echinococcus granulosus [40]): Active
Activity (Echinococcus granulosus [41]): Active
Activity [42]: Non-Toxic
Activity [43]: Non-Toxic
Activity [44]: Non-Toxic
Activity (Echinococcus granulosus [45]): Active
Activity (Echinococcus granulosus [46]): Active
Activity (Echinococcus granulosus [47]): Active
Activity (Echinococcus granulosus [19]): Tde
RatioLC50 (Echinococcus granulosus [48]): 95
Activity (Echinococcus granulosus [21]): Active
Activity [49]: Non-Toxic
Activity [50]: Non-Toxic
Activity [51]: Non-Toxic
Activity [52]: Non-Toxic
Activity [53]: Non-Toxic
